Patent US20080241870A1, “Composition For Creating an Artificial Bone Marrow Like Environment and Use Thereof” (NATIONAL CENTRE FOR CELL SCINECES, priority 2005, published 2008)

Columns and labels:
Type in all cases: cell-based, human
[1] = tested on: mesenchymal cells (ABME) with MNC; assay: quantitative hematopoietic colony formation assay for ABME (HCFA-ABME): MNC with hematomodulator-contacted mesenchymal cells
Excerpt: As described above, the medium for blood cell formation employed may be IMDM with 20% serum and supplemented with interleukins such as IL-lbeta, IL-3, and IL-6, stem cell factor, lineage specific growth factors such as erythropoietin and GM-CSF, G-CSF; and methyl cellulose to the extent of 0.8%, the culture is maintained for 12-14 days under the culture conditions whereby blood cell colonies grow well or form colonies and clearly the growth is visible/distinguishable for further analysis and use. An assay designed in a similar manner to assess quantitative nature of ABME function is referred hereafter as ‘quantitative hematopoietic colony formation assay for ABME (HCFA-ABME)’.
Several experiments were conducted to determine that mesenchymal cells exert direct influence on SPC cell-fate. In one set of experiments, mesenchymal cells were cultured separately and nearly 50,000 of them were exposed to a typical HCFA medium comprising 0.8% methyl cellulose in IMDM and 20-30% serum along with excess amounts of various purified and human specific cytokines and hematopoietic colony stimulating growth factors (from Stem cell Technologies, […], Canada). More specifically, the quantities of hematopoietic growth factors used routinely in HCFA were, 2 International Units per milliliter (2 I.U.ml^−1) of Erythropietin (EPO), 50 nanogram per milliliter (50 ng.ml^−1) of Stem Cell Factor (SCF) and 20 nanogram per milliliter (20 ng/ml^−1) each of Granulocyte-Macrophage-Colony Stimulating Factor (GM-CSF), Granulocyte-Colony Stimulating Factor (G-CSF), Interleukin-1 beta (IL-1β), Interleukin-3 (IL-3) and Interleukin-6 (IL-6) {all growth factors and cytokines are from Stem cell Technologies, Vancouver, Canada,}.
In another set of experiments, 50,000 of the same mesenchymal cells were first mixed with nearly 100,000 MNC, held at 37° C. for at least 30 minutes and were processed for colony formation assays. In several experiments, a consistent improvement in the number and cellularity of the hematopoietic colonies was seen when both these two cell types were mixed compared to a reference where only the cells of MNC were used. The increase was ranging from 1.5 to 10-fold. Thus, the enhancement in colony formation obtained with the use of only mesenchymal cells was highly variable and unpredictable among samples. The fact that hematopoietic colonies formed in increased numbers and cellularity only when MNC and mesenchymal cells were processed together is evidence of a new environment created by the mesenchymal cells in which the SPC present in the MNC were more productive. This increase results in activation of the pre-existing but quiescent SPC, formation of new SPC due to self-renewal, and a combination of both factors.
In order to create ABME, the mesenchymal cells were covered with the contacting medium comprising hematomodulators contained in IMDM with 20% human serum or fetal bovine serum for a desirable period (range 8-24 hours) and removed. The contacted cells were then washed 2 times using the contacting medium (IMDM +20% FCS) without hematomodulators and used as such or after harvesting the mesenchymal cells, which now represent the composition of in vitro ABME. Optionally, ABME cells can be configured on supports that will distribute them in two or more dimensions for better results. A requisite number of MNC/SPC and cells of the ABME are taken and kept together for a suitable duration (range 0.5 to 6 hours) after which they were processed for in vitro hematopoietic colony formation assays or hematopoiesis.
Thus, the inventors undertook 4 sets of experiments: (a) wherein mononuclear cells were exposed to mesenchymal cells without any treatment; (b) wherein MNC were exposed to mesenchymal cells contacted with a biological agent [TGFβ1] […]

[2] = tested on: CD34+ SPC; assay: lineage commitment: HCFA with CD34+ SPC, count of mature blood cells after 14 days; conditions: 10 ngml^-1, 18 hours; HCFA 14 days; FIG. 8a
Description: The mesenchyme cells (5×10^4 cells per well in a 24 well dish) were grown in IMDM plus 20% fetal bovine serum until they were nearly confluent. The medium was removed and was washed 2× with PBS. Two different ABME were prepared by using two biological hematomodulators (TGFβ1 10 ngml^−1, bFGF 10 ngml^−1, 18 hours) separately. The ABME formed was washed 2× with PBS and was covered with 0.2 ml of a suspension of CD34^+ SPC cells (10^5 ml−1) for 1 hour at 37° C. All the cells of the dish were then harvested after washing and were used in a HCFA. After 14 days, the mature blood cells formed were harvested and an aliquot of the suspension was examined under the microscope to identify and count the mature lymphoid and myeloid cells.
The mesenchyme cells (5×10^4 cells per well in a 24 well dish) were grown in IMDM plus 20% fetal bovine serum until they were nearly confluent. The medium was removed and was washed 2× with PBS. The cells in one well were treated with a DiBromo derivative of the Calcium ion chelator BAPTA (5 micromolar) for one hour whereas another well received only the medium without the BAPTA derivative. After 1 hour of incubation at 37° C., TGFβ1 was added to both the wells (10 ng ml−1) and the incubation was continued for a further period of 18 hours. The ABME formed in both wells were washed and were used for HCFA using CD34^+ SPC. After 14 days the mature blood cells were harvested and were quantitated for the cells of erythroid and myeloid lineage.

[3] = tested on: MNC; assay: self renewal: GEMM colony formation of MNC mixed with doses of ABME cells
Description: The mesenchyme cells were grown in IMDM plus 20% fetal bovine serum until they were nearly confluent. The medium was removed and was washed 2× with PBS. ABME was prepared by using a biological hematomodulator namely, TGF beta 1(20 ng ml−1).The ABME formed was washed 2× with PBS and the cells were dissociated with a non-enzymatic solution (Sigma). A fixed number of MNC namely 2×10^5 were mixed with various doses of dissociated mesenchymal cells (2×10^4, 5×10^4 and 1×10^5) and incubated for 1 hour. At the end of the incubation, cells were processed for hematopoietic colony formation assays (HCFA). […] Secondly the lowest concentration of cells from ABME (2×10^4) was more efficient in the stimulation of GEMM formation than the highest concentration (1×10^5) of mesenchymal cells indicating a nearly 10 fold increase in the efficiency.

[4] = tested on: CD34+ cells; assay: self renewal: CD34+ cell number after 48 hours on ABME; Jagged1 expression
Description: Mesenchyme cells were grown on a sterile 1 cm×1 cm glass coverslip to near confluence and were covered with a treatment medium containing 10 ngml^−1 TGF-β1 and were incubated for 18 hours in a humidified sterile atmosphere and 5% CO2. The coverslips were then washed with PBS, and the ABME thus created were covered with a suspension of 2×10^5 CD34^+ cells in 0.2 ml of IMDM with 20% serum. The cells were washed after one hour and the bound cells were covered with medium with 20% serum containing 0.8% methyl cellulose and growth factors. The change in CD34^+ cell number after 48 hours was monitored with a CD34^+ specific antibody (clone HPCA1, Becton Dickinson, USA).

Substance: HumanTransforming Growth Factor beta1 [TGFβ1]
- efficiency of ABME created ([1]; 1-25 nano gram.ml^-1, mesenchymal cells contacted 8-24 hours): equally efficient ABME
- blood cell colonies formed (number, cellularity) ([1]; MNC exposed to mesenchymal cells contacted with the agent, compared with (A) untreated mesenchymal cells, FIG. 1): greater in number and of higher cellularity than (A)
- colony formation along lineages GEMM, BFU-E and GM ([1]; lineage specific colony formation assay, FIG. 3A, vs control without biological agent): uniformly stimulated
- potency in creating ABME from mesenchymal cells ([1]; used separately): nearly equipotent
- mature lymphoid and myeloid cells formed [2]: supported more myeloid cell formation
- GEMM colony formation ([3]; 20 ng ml-1, 2×10^5 MNC with 2×10^4, 5×10^4, 1×10^5 ABME cells vs control mesenchymal cells, FIG. 10a): clear dose dependent increase in GEMM colony formation
- increase in efficiency of GEMM stimulation ([3]; 2×10^4 ABME cells vs 1×10^5 mesenchymal cells): ~10 fold
- CD34+ cell proliferation ([4]; 10 ngml^-1, 18 hours, CD34+ number after 48 hours, vs no TGFβ1, FIG. 10b): supported more CD34^+ cell proliferation
- Jagged1 amount in ABME ([4]; compared to mesenchyme cells, FIG. 10c): significantly more amounts of the promoter of self renewal, Jagged1
